Read-outs that look alike come from different tables or passages of the source.

What is called IC50 is the concentration that gives 50% inhibition. The Kd is a measure of binding affinity in units of concentration.

Experiment [1] concerns the target T1, PSMA (Homo sapiens, UniProt Q04609).
T1 construct: host or cells: LNCaP cell membranes
The experiment can be described thus: Competitive binding on LNCaP cell membranes with [131I]I-MIP1095 as competitive radioligand. The settings on record: [131I]I-MIP1095 radioligand, 2 h at 37 °C. As to the method: Cells from prostate cancer carcinomas: LNCaP and PC3, were isolated like previously described. The cells were harvested using 1 mL/flask of Trypsin-EDTA solution and centrifuged (1500 rpm for 15 min (LNCaP) and 1300 rpm for 6 min (PC3)). Received cell sediment was resuspended in 9.7 mM NaHCO3 containing 0.3 mM NaH2PO4 and incubated for 30 min at 4 °C. The solution was dispensed on 1.5 mL Eppendorf and centrifuged (13,500 rpm for 30 min). The supernatant was removed, the pellet was resuspended in 50 mM Tris-HCl Buffer (pH 7.4) and homogenized using a syringe with a thin needle. The solution was centrifuged (13,500 rpm for 30 min), and the final pellet was suspended in 50 mM Tris-HCl buffer (pH 7.4) and transferred to −70 °C.
The LNCaP cell membranes were distributed (in four replicates) in the constant amount on special MultiScreen™ 96 well assay plates. 100 µL of un-supplemented RPMI 1640 medium and 50 µL of increasing concentration of the unlabeled PSMA inhibitors was added to each well. As a control, 50 µL of PBS in 100 µL of media was used. After 15 min incubation at 37 °C, 50 µL of [^131I]I-MIP-1095 was added. Plates were incubated for 2 h at 37 °C. After an appropriate time, the supernatant solution was filtered under vacuum, and the membranes were washed twice with PBS solution. Filters and membranes were extruded to the tubes using MultiScreen Multiple Punch. The radioactivity of the filters was measured using a Wallac Wizard 1470 γ counter. The IC50 was evaluated and determined using GraphPad Prism 9.4 statistic program. As a control, PSMA-11 was used.

The subject of experiment [2] is PSMA. Also noted: method as in PMID 28450562. The note with it: affinity for PSMA ref 53; cited from earlier work.
Experiment [3] concerns the target PSMA. On the set-up: method as in PMID 24983957. The settings on record: cited from earlier work.

T1 sequence (Q04609 whole entry): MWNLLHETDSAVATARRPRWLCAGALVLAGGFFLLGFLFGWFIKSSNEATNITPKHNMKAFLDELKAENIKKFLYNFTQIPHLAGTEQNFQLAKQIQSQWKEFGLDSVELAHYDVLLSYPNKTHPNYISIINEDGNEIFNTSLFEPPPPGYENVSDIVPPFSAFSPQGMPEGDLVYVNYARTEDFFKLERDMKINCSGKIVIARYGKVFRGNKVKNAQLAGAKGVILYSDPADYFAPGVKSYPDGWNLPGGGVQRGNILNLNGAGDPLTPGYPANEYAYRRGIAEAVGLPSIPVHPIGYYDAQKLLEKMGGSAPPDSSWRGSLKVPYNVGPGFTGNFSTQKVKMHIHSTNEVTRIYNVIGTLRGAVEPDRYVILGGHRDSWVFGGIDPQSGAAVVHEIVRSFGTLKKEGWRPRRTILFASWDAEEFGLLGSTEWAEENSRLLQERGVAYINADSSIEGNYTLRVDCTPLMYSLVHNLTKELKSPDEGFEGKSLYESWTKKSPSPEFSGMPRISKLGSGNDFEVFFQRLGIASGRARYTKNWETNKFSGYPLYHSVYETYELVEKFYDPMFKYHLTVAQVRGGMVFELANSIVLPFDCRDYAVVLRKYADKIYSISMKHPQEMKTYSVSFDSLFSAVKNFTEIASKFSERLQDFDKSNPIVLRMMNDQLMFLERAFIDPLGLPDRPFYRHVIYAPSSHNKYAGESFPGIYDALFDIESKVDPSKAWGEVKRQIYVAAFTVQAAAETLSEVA

On PSMA [1], `NNc1ccc(C(=O)NCCCCCC(=O)N[C@@H](Cc2c[nH]c3ccccc23)C(=O)NCCCC[C@H](NC(=O)N[C@@H](CCC(=O)O)C(=O)O)C(=O)O)cn1` [PSMA-T3, Glu-CO-Lys-LTrp-6Ahx-HYNIC] showed an IC50 of 74.6 nM.
Turning to `O=C(O)CC[C@H](NC(=O)N[C@@H](CCCCNC(=O)Nc1ccc([131I])cc1)C(=O)O)C(=O)O` [[^131I]I-MIP-1095, (2S)-2-({[(1S)-1-carboxy-5-({[4-[¹³¹I]iodophenyl]carbamoyl}amino)pentyl]carbamoyl}amino)pentanedioic acid], in the experiment on PSMA [2], the half-maximal inhibitory concentration (IC50) was 0.3 nM.
With `O.O=C([O-])CN(CCN(CC(=O)[O-])Cc1cc(CCC(=O)O)ccc1O)Cc1cc(CCC(=O)NCCCCCC(=O)NCCCC[C@H](NC(=O)N[C@@H](CCC(=O)O)C(=O)O)C(=O)O)ccc1[O-].[Ga+3]` [[^68Ga]Ga-PSMA-11, Glu-NH-CO-Lys-(ahx)-HBED-CC-[^68Ga]Ga], at PSMA [3] (literature value ref 15), the Kd was 11.4 ± 7.1 nM.
At PSMA [1], `NNc1ccc(C(=O)NC[C@H]2CC[C@H](C(=O)N[C@@H](Cc3c[nH]c4ccccc34)C(=O)NCCCC[C@H](NC(=O)N[C@@H](CCC(=O)O)C(=O)O)C(=O)O)CC2)cn1` [PSMA-T4, (S)-2-{3-[(S)-5-[(S)-3-(1H-Indol-3-yl)-2-({(1r,4r)-4-[(6-hydrazino-nicotinoylamino)methyl]cyclohexyl}carbonylamino)propionylamino]-1-carboxypentyl]ureido}glutaric acid] returned an IC50 of 79.5 nM.
In turn, `O=C(O)CCc1ccc(O)c(CN(CCN(CC(=O)O)Cc2cc(CCC(=O)NCCCCCC(=O)NCCCC[C@H](NC(=O)N[C@@H](CCC(=O)O)C(=O)O)C(=O)O)ccc2O)CC(=O)O)c1` [PSMA-11] returned an IC50 on PSMA [1] of 715 nM. Besides, at PSMA [3], the Kd was 11.4 nM.
